ChEMBL document CHEMBL2029240 (ACS Med Chem Lett, 2011)

Key:
[1] = biological target: hERG (KCNH2) (Homo sapiens, UniProt Q12809); assay: Inhibition of human ERG at 10 uM by patch clamp assay
[2] = biological target: Voltage-gated inwardly rectifying potassium channel KCNH2 (Homo sapiens, UniProt Q12809); assay: Displacement of [3H]dofetilide from human ERG
[3] = biological target: T1, C-C chemokine receptor type 2 (Homo sapiens, UniProt P41597)
Description: Displacement of [125I]MCP1 from human CCR2 in PBMC after 30 mins by gamma counting

[4] = biological target: T1, C-C chemokine receptor type 2; assay: Antagonist activity at CCR2 receptor in human whole blood assessed as inhibition of alexa-tagged MCP-induced effect 30 mins by flow cytometry; format: functional, tissue-based

T1 sequence (P41597 whole entry): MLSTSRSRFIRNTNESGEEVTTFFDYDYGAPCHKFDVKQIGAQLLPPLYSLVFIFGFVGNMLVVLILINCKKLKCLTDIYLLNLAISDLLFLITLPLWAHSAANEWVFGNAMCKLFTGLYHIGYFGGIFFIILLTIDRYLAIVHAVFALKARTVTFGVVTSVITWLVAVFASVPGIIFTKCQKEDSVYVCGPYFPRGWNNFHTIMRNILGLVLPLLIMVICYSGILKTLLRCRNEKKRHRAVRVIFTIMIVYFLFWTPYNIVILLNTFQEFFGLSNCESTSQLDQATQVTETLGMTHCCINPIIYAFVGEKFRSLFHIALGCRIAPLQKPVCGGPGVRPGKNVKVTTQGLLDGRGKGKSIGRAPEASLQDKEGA
Sequence of Voltage-gated inwardly rectifying potassium channel KCNH2 (Q12809 whole entry): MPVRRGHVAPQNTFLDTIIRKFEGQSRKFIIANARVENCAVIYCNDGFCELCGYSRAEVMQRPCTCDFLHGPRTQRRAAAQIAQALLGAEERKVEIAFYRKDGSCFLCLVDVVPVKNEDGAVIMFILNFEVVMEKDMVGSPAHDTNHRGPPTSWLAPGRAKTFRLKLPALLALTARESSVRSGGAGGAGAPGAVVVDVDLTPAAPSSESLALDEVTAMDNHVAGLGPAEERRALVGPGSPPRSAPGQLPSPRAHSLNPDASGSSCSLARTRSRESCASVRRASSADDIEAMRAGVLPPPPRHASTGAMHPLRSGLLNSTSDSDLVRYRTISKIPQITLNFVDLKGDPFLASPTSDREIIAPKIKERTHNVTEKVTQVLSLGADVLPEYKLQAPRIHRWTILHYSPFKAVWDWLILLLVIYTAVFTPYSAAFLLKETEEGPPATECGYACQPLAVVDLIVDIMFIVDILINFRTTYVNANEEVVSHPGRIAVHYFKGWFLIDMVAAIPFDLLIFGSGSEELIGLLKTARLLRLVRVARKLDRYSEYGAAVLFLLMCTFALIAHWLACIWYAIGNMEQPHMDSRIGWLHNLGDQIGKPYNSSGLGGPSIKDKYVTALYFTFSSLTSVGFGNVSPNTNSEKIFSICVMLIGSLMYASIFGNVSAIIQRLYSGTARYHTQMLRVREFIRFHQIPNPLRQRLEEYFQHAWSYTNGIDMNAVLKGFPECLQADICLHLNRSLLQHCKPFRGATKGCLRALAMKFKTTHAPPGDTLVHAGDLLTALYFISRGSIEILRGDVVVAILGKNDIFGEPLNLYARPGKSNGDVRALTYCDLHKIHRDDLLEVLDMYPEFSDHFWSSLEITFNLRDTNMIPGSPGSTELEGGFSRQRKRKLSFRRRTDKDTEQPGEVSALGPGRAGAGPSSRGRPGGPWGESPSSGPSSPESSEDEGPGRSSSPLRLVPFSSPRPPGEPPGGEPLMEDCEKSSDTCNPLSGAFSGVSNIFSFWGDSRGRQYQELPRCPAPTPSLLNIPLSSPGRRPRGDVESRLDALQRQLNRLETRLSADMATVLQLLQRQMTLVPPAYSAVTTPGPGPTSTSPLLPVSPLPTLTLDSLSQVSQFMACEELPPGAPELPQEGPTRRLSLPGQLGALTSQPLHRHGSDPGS
Sequence of hERG (KCNH2) (Q12809 whole entry): as above

`O=C(NCC(=O)N1CC[C@H](N[C@H]2CC[C@@](O)(c3ccc(-c4cnccn4)cn3)CC2)C1)c1cccc(C(F)(F)F)c1` showed an inhibition at 10 µM [1] of 70% and an IC50 [2] greater than 30000 nM.
Molecule `O=C(NCC(=O)N1CC[C@H](N[C@H]2CC[C@@](O)(c3ccc(-c4nccs4)cn3)CC2)C1)c1cccc(C(F)(F)F)c1` has an inhibition at 10 µM [1] of 85% and an IC50 [2] greater than 30000 nM.
With `O=C(C1CCN(c2cccc(C(F)(F)F)c2)CC1)N1CC[C@H](N[C@H]2CC[C@@](O)(c3ccc(-c4ncccn4)cn3)CC2)C1` the IC50 [3] was 3.6 nM, the IC50 [4] was 37 nM and the IC50 [2] was 9000 nM.
In the case of `O=C(C1CCN(c2cccc(C(F)(F)F)n2)CC1)N1CC[C@H](N[C@H]2CC[C@@](O)(c3ccc(-c4ncccn4)cn3)CC2)C1`, the IC50 [3] is reported as 4.5 nM and the IC50 [4] is reported as 88 nM.
Work on `O=C(C1CCN(c2cc(C(F)(F)F)ccn2)CC1)N1CC[C@H](N[C@H]2CC[C@@](O)(c3ccc(-c4ncccn4)cn3)CC2)C1` yielded an IC50 [3] of 3.3 nM, an IC50 [4] of 12 nM and an IC50 [2] of 28000 nM.
